Laboratory results from patent US10131652B2, “Pyrimidinyloxy benzene derivatives as herbicides” (E. I. DU PONT DE NEMOURS AND COMPANY, priority 2014, dated 2018).
Read-outs that look alike come from different tables or passages of the source.

Assays:
Assay in all cases: Test E pre-/postemergence plant response
Format in all cases: in vivo
[1] = system: deadnettle (henbit deadnettle, Lamium amplexicaule); conditions: scale 0 to 100, read-out: Plant response rating, Deadnettle; for pest or weed control at 16 g/ha: 16 g ai/ha; for pest or weed control at 31 g/ha: 31 g ai/ha; for pest or weed control at 62 g/ha: 62 g ai/ha; for pest or weed control at 125 g/ha: 125 g ai/ha
Method in brief: (§1)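 Visual scores on a 0–100 scale (100 = complete control) were assigned against untreated controls 7–21 days after treatment in a controlled environment. Compounds, formulated with solvent plus surfactant, were applied to pre-emergence silt-loam sowings or to 1- to 4-leaf plants (2–18 cm) in potting medium.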

[2] = system: galium (catchweed bedstraw, Galium aparine); conditions: scale 0 to 100, read-out: Plant response rating, Galium; for pest or weed control at 16 g/ha: 16 g ai/ha; for pest or weed control at 31 g/ha: 31 g ai/ha; for pest or weed control at 62 g/ha: 62 g ai/ha; for pest or weed control at 125 g/ha: 125 g ai/ha
Method in brief: as §1

[3] = system: blackgrass (Alopecurus myosuroides); conditions: scale 0 to 100, read-out: Plant response rating, Blackgrass; for pest or weed control at 16 g/ha: 16 g ai/ha; for pest or weed control at 31 g/ha: 31 g ai/ha; for pest or weed control at 62 g/ha: 62 g ai/ha; for pest or weed control at 125 g/ha: 125 g ai/ha
Method in brief: as §1

[4] = system: field violet (Viola arvensis); conditions: scale 0 to 100, read-out: Plant response rating, Field Violet; for pest or weed control at 31 g/ha: 31 g ai/ha; for pest or weed control at 125 g/ha: 125 g ai/ha
Method in brief: as §1

[5] = system: pigweed (Amaranthus retroflexus); conditions: scale 0 to 100, read-out: Plant response rating, Pigweed; for pest or weed control at 16 g/ha: 16 g ai/ha; for pest or weed control at 31 g/ha: 31 g ai/ha; for pest or weed control at 62 g/ha: 62 g ai/ha; for pest or weed control at 125 g/ha: 125 g ai/ha
Method in brief: as §1

[6] = system: wild radish (Raphanus raphanistrum); conditions: scale 0 to 100, read-out: Plant response rating, Radish, Wild; for pest or weed control at 16 g/ha: 16 g ai/ha; for pest or weed control at 31 g/ha: 31 g ai/ha; for pest or weed control at 62 g/ha: 62 g ai/ha; for pest or weed control at 125 g/ha: 125 g ai/ha
Method in brief: as §1

[7] = system: canarygrass (Phalaris minor); conditions: scale 0 to 100, read-out: Plant response rating, Canarygrass; for pest or weed control at 16 g/ha: 16 g ai/ha; for pest or weed control at 31 g/ha: 31 g ai/ha; for pest or weed control at 62 g/ha: 62 g ai/ha; for pest or weed control at 125 g/ha: 125 g ai/ha
Method in brief: as §1

[8] = system: winter barley (Hordeum vulgare); conditions: post-emergence, Postemergence, scale 0 to 100, read-out: Plant response rating, Barley, Winter
Method in brief: as §1

[9] = system: Italian ryegrass (Lolium multiflorum); conditions: scale 0 to 100, read-out: Plant response rating, Ryegrass, Italian; for pest or weed control at 16 g/ha: 16 g ai/ha; for pest or weed control at 31 g/ha: 31 g ai/ha; for pest or weed control at 62 g/ha: 62 g ai/ha; for pest or weed control at 125 g/ha: 125 g ai/ha
Method in brief: as §1

[10] = system: chickweed (common chickweed, Stellaria media); conditions: scale 0 to 100, read-out: Plant response rating, Chickweed; for pest or weed control at 16 g/ha: 16 g ai/ha; for pest or weed control at 31 g/ha: 31 g ai/ha; for pest or weed control at 62 g/ha: 62 g ai/ha; for pest or weed control at 125 g/ha: 125 g ai/ha
Method in brief: as §1

[11] = system: lambsquarters (Chenopodium album); conditions: scale 0 to 100, read-out: Plant response rating, Lambsquarters; for pest or weed control at 16 g/ha: 16 g ai/ha; for pest or weed control at 31 g/ha: 31 g ai/ha; for pest or weed control at 62 g/ha: 62 g ai/ha; for pest or weed control at 125 g/ha: 125 g ai/ha
Method in brief: as §1

FC(F)(F)c1cc(-c2ccccc2Oc2ncc(Cl)cn2)no1 [Compound 200, 5-chloro-2-[2-[5-(trifluoromethyl)-3-isoxazolyl]phenoxy]pyrimidine]
pest or weed control at 16 g/ha ([1]; post-emergence, Postemergence): 50%
pest or weed control at 31 g/ha ([1]; post-emergence, Postemergence): 60%
pest or weed control at 62 g/ha ([1]; post-emergence, Postemergence): 80%
pest or weed control at 125 g/ha ([1]; post-emergence, Postemergence): 90%
pest or weed control at 16 g/ha ([1]; pre-emergence, Preemergence): 60%
pest or weed control at 31 g/ha ([1]; pre-emergence, Preemergence): 90%
pest or weed control at 62 g/ha ([1]; pre-emergence, Preemergence): 100%
pest or weed control at 125 g/ha ([1]; pre-emergence, Preemergence): 100%
pest or weed control at 16 g/ha ([2]; post-emergence, Postemergence): 70%
pest or weed control at 31 g/ha ([2]; post-emergence, Postemergence): 75%
pest or weed control at 62 g/ha ([2]; post-emergence, Postemergence): 75%
pest or weed control at 125 g/ha ([2]; post-emergence, Postemergence): 90%
pest or weed control at 16 g/ha ([2]; pre-emergence, Preemergence): 15%
pest or weed control at 31 g/ha ([2]; pre-emergence, Preemergence): 25%
pest or weed control at 62 g/ha ([2]; pre-emergence, Preemergence): 55%
pest or weed control at 125 g/ha ([2]; pre-emergence, Preemergence): 100%
pest or weed control at 16 g/ha ([3]; post-emergence, Postemergence): 15%
pest or weed control at 31 g/ha ([3]; post-emergence, Postemergence): 35%
pest or weed control at 62 g/ha ([3]; post-emergence, Postemergence): 55%
pest or weed control at 125 g/ha ([3]; post-emergence, Postemergence): 75%
pest or weed control at 16 g/ha ([3]; pre-emergence, Preemergence): 25%
pest or weed control at 31 g/ha ([3]; pre-emergence, Preemergence): 75%
pest or weed control at 62 g/ha ([3]; pre-emergence, Preemergence): 90%
pest or weed control at 125 g/ha ([3]; pre-emergence, Preemergence): 100%
pest or weed control at 16 g/ha ([4]; post-emergence, 16 g ai/ha, Postemergence): 70%
pest or weed control at 31 g/ha ([4]; post-emergence, Postemergence): 80%
pest or weed control at 62 g/ha ([4]; post-emergence, 62 g ai/ha, Postemergence): 75%
pest or weed control at 125 g/ha ([4]; post-emergence, Postemergence): 95%
pest or weed control at 31 g/ha ([4]; pre-emergence, Preemergence): 50%
pest or weed control at 125 g/ha ([4]; pre-emergence, Preemergence): 100%
pest or weed control at 16 g/ha ([5]; post-emergence, Postemergence): 85%
pest or weed control at 31 g/ha ([5]; post-emergence, Postemergence): 90%
pest or weed control at 62 g/ha ([5]; post-emergence, Postemergence): 90%
pest or weed control at 125 g/ha ([5]; post-emergence, Postemergence): 90%
pest or weed control at 16 g/ha ([5]; pre-emergence, Preemergence): 100%
pest or weed control at 31 g/ha ([5]; pre-emergence, Preemergence): 100%
pest or weed control at 62 g/ha ([5]; pre-emergence, Preemergence): 100%
pest or weed control at 125 g/ha ([5]; pre-emergence, Preemergence): 100%
pest or weed control at 16 g/ha ([6]; post-emergence, Postemergence): 65%
pest or weed control at 31 g/ha ([6]; post-emergence, Postemergence): 80%
pest or weed control at 62 g/ha ([6]; post-emergence, Postemergence): 85%
pest or weed control at 125 g/ha ([6]; post-emergence, Postemergence): 95%
pest or weed control at 16 g/ha ([6]; pre-emergence, Preemergence): 80%
pest or weed control at 31 g/ha ([6]; pre-emergence, Preemergence): 70%
pest or weed control at 62 g/ha ([6]; pre-emergence, Preemergence): 95%
pest or weed control at 125 g/ha ([6]; pre-emergence, Preemergence): 95%
pest or weed control at 16 g/ha ([7]; post-emergence, Postemergence): 10%
pest or weed control at 31 g/ha ([7]; post-emergence, Postemergence): 35%
pest or weed control at 62 g/ha ([7]; post-emergence, Postemergence): 45%
pest or weed control at 125 g/ha ([7]; post-emergence, Postemergence): 60%
pest or weed control at 16 g/ha ([7]; pre-emergence, Preemergence): 10%
pest or weed control at 31 g/ha ([7]; pre-emergence, Preemergence): 55%
pest or weed control at 62 g/ha ([7]; pre-emergence, Preemergence): 100%
pest or weed control at 125 g/ha ([7]; pre-emergence, Preemergence): 100%
plant injury at 16 g/ha ([8]; 16 g ai/ha): 5%
plant injury at 31 g/ha ([8]; 31 g ai/ha): 10%
plant injury at 62 g/ha ([8]; 62 g ai/ha): 20%
plant injury at 125 g/ha ([8]; 125 g ai/ha): 25%
pest or weed control at 16 g/ha ([9]; post-emergence, Postemergence): 5%
pest or weed control at 31 g/ha ([9]; post-emergence, Postemergence): 10%
pest or weed control at 62 g/ha ([9]; post-emergence, Postemergence): 25%
pest or weed control at 125 g/ha ([9]; post-emergence, Postemergence): 40%
pest or weed control at 16 g/ha ([9]; pre-emergence, Preemergence): 0%
pest or weed control at 31 g/ha ([9]; pre-emergence, Preemergence): 25%
pest or weed control at 62 g/ha ([9]; pre-emergence, Preemergence): 30%
pest or weed control at 125 g/ha ([9]; pre-emergence, Preemergence): 85%
pest or weed control at 16 g/ha ([10]; post-emergence, Postemergence): 65%
pest or weed control at 31 g/ha ([10]; post-emergence, Postemergence): 75%
pest or weed control at 62 g/ha ([10]; post-emergence, Postemergence): 100%
pest or weed control at 125 g/ha ([10]; post-emergence, Postemergence): 100%
pest or weed control at 16 g/ha ([10]; pre-emergence, Preemergence): 70%
pest or weed control at 31 g/ha ([10]; pre-emergence, Preemergence): 90%
pest or weed control at 62 g/ha ([10]; pre-emergence, Preemergence): 100%
pest or weed control at 125 g/ha ([10]; pre-emergence, Preemergence): 100%
pest or weed control at 16 g/ha ([11]; post-emergence, Postemergence): 75%
pest or weed control at 31 g/ha ([11]; post-emergence, Postemergence): 85%
pest or weed control at 62 g/ha ([11]; post-emergence, Postemergence): 90%
pest or weed control at 125 g/ha ([11]; post-emergence, Postemergence): 95%
pest or weed control at 16 g/ha ([11]; pre-emergence, Preemergence): 10%
pest or weed control at 31 g/ha ([11]; pre-emergence, Preemergence): 85%
pest or weed control at 62 g/ha ([11]; pre-emergence, Preemergence): 100%
pest or weed control at 125 g/ha ([11]; pre-emergence, Preemergence): 100%
